The data set deals with CCRIS mutagenicity, Ames/micronucleus/aberration tests. The data set can be described thus: CCRIS mutagenicity studies.
Setting [1] is: Test System: AMES SALMONELLA TYPHIMURIUM, Strain/Indicator: TA98, Metabolic Activation: NONE, Method: STANDARD PLATE.
Setting [2] is: Test System: AMES SALMONELLA TYPHIMURIUM, Strain/Indicator: TA100, Metabolic Activation: NONE, Method: STANDARD PLATE.
Where [3] appears, read: Test System: MOUSE LYMPHOMA, Strain/Indicator: L5178Y (TK+/TK-), Metabolic Activation: NONE, Method: SUSPENSION/PLATE.

The source made the active and inactive calls. No rule for the calls is given here.

As for `CCN(CCCl)c1ccc(-c2nc3ccc(-c4nc5ccc(N6CCN(C)CC6)cc5[nH]4)cc3[nH]2)cc1`, the mutagenic call is, setting by setting: under setting [1], “inactive; negative”; under setting [2], “inactive; negative”; (Test System: AMES SALMONELLA TYPHIMURIUM, Strain/Indicator: TA102, Metabolic Activation: NONE, Method: STANDARD PLATE) “inactive; negative”.

Take `c1ccc(-c2ccncc2)nc1`: the mutagenic call is, setting by setting: (Test System: AMES SALMONELLA TYPHIMURIUM, Strain/Indicator: TA97, Metabolic Activation: RAT, LIVER, S-9, PHENOBARBITAL, Method: STANDARD PLATE) “inactive; negative”; (Test System: AMES SALMONELLA TYPHIMURIUM, Strain/Indicator: TA98, Metabolic Activation: RAT, LIVER, S-9, PHENOBARBITAL, Method: STANDARD PLATE) “active; positive”; (Test System: AMES SALMONELLA TYPHIMURIUM, Strain/Indicator: TA100, Metabolic Activation: RAT, LIVER, S-9, PHENOBARBITAL, Method: STANDARD PLATE) “inactive; negative”; (Test System: AMES SALMONELLA TYPHIMURIUM, Strain/Indicator: TA1535, Metabolic Activation: RAT, LIVER, S-9, PHENOBARBITAL, Method: STANDARD PLATE) “inactive; negative”; (Test System: AMES SALMONELLA TYPHIMURIUM, Strain/Indicator: TA1537, Metabolic Activation: RAT, LIVER, S-9, PHENOBARBITAL, Method: STANDARD PLATE) “active; positive”; (Test System: AMES SALMONELLA TYPHIMURIUM, Strain/Indicator: TA1538, Metabolic Activation: RAT, LIVER, S-9, PHENOBARBITAL, Method: STANDARD PLATE) “inactive; negative”.

As to `C[C@]12CC[C@@H]3c4ccc(O)cc4CC[C@H]3[C@@H]1CCC2=O`, the mutagenic call reads like this: (End Point: IN VITRO CHROMOSOMAL ABERRATIONS, Test System: CHO CELLS, Metabolic Activation: NONE) “active; positive”; (End Point: IN VITRO MICRONUCLEUS, Test System: MCF-7 (HUMAN MAMMARY CARCINOMA), Metabolic Activation: NONE) “active; positive”; (Test System: UDS RAT HEPATOCYTES, Strain/Indicator: THY INCORP (18-20 HR), Metabolic Activation: NONE, Method: LIQUID SCINTILLATION COUNTING) “inactive; negative”.

As for `C=CC(=O)OCCC`, the mutagenic call under setting [3] was “active; positive. reevaluation of results: positive” and the mutagenic call (Test System: MOUSE LYMPHOMA, Strain/Indicator: L5178Y (TK+/TK-), Metabolic Activation: RAT, LIVER, S-9, AROCLOR 1254, Method: SUSPENSION/PLATE) was “active; positive. reevaluation of results: positive”.

As to `O=C(CCl)Nc1snc2ccc(Cl)cc12`, the mutagenic call runs as follows: under setting [1], “inactive; negative”; (Test System: AMES SALMONELLA TYPHIMURIUM, Strain/Indicator: TA98, Metabolic Activation: S-9, Method: STANDARD PLATE) “active; positive”; under setting [2], “inactive; negative”; (Test System: AMES SALMONELLA TYPHIMURIUM, Strain/Indicator: TA100, Metabolic Activation: S-9, Method: STANDARD PLATE) “active; positive”; (Test System: AMES SALMONELLA TYPHIMURIUM, Strain/Indicator: TA1535, Metabolic Activation: NONE, Method: STANDARD PLATE) “inactive; negative”; (Test System: AMES SALMONELLA TYPHIMURIUM, Strain/Indicator: TA1535, Metabolic Activation: S-9, Method: STANDARD PLATE) “inactive; negative”. The mutagenic call is “active; positive” (Test System: AMES SALMONELLA TYPHIMURIUM, Strain/Indicator: TA1537, Metabolic Activation: NONE, Method: STANDARD PLATE) and “active; positive” (Test System: AMES SALMONELLA TYPHIMURIUM, Strain/Indicator: TA1537, Metabolic Activation: S-9, Method: STANDARD PLATE).

As to `O=C1c2c(O)ccc(O)c2C(=O)c2c(NCCO)ccc(NCCO)c21`, the mutagenic call under setting [3] is “active; positive”.

Consider `BrCC(Br)CBr`, for which the mutagenic call by setting is: (Test System: AMES SALMONELLA TYPHIMURIUM, Strain/Indicator: TA100, Metabolic Activation: RAT, LIVER, MICROSOMES, PHENOBARBITAL, NADPH COFACTORS, Method: STANDARD PLATE) “active; positive”; (Test System: AMES SALMONELLA TYPHIMURIUM, Strain/Indicator: TA100, Metabolic Activation: RAT, LIVER, MICROSOMES, PHENOBARBITAL, Method: STANDARD PLATE) “inactive; negative”.

The values above are taken from PubChem BioAssay AID1259407 (Chemical Carcinogenesis Research Information System (CCRIS), 2018).
